Data published in PubChem BioAssay (NCI).
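Here, GI50 denotes the concentration required for 50% inhibition of growth. At the TGI there is no net growth.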

Tests used:
Test in all cases: DTP human tumour cell line panel, 384-well format; in the data active = GI50 below about 0.43 µM; inactive = the rest
[1] = system: 786-0 renal
[2] = system: A498 renal
[3] = system: A549 NSCLC
[4] = system: ACHN renal
[5] = system: BT-549 breast
[6] = system: CAKI-1 renal
[7] = system: CCRF-CEM leukemia
[8] = system: COLO 205 colon
[9] = system: DU-145 prostate
[10] = system: EKVX NSCLC
[11] = system: HCC-2998 colon
[12] = system: HCT-15 colon
[13] = system: HL-60(TB) leukemia
[14] = system: HOP-62 NSCLC
[15] = system: HOP-92 NSCLC
[16] = system: HS 578T breast
[17] = system: HT29 colon
[18] = system: K-562 leukemia
[19] = system: KM12 colon
[20] = system: LOX IMVI melanoma
[21] = system: M14 melanoma
[22] = system: MALME-3M melanoma
[23] = system: MCF7 breast
[24] = system: MDA-MB-231 breast
[25] = system: MDA-MB-435 melanoma
[26] = system: MDA-MB-468 breast
[27] = system: MOLT-4 leukemia
[28] = system: NCI-H226 lung
[29] = system: NCI-H23 lung
[30] = system: NCI-H322M lung
[31] = system: NCI-H460 NSCLC
[32] = system: NCI-H522 lung
[33] = system: NCI/ADR-RES ovarian
[34] = system: OVCAR-3 ovarian
[35] = system: OVCAR-4 ovarian
[36] = system: OVCAR-5 ovarian
[37] = system: OVCAR-8 ovarian
[38] = system: PC-3 prostate
[39] = system: RPMI-8226 leukemia
[40] = system: SF-268 CNS
[41] = system: SF-295 CNS
[42] = system: SF-539 CNS
[43] = system: SK-MEL-28 melanoma
[44] = system: SK-MEL-5 melanoma
[45] = system: SK-OV-3 ovarian
[46] = system: SN12C renal
[47] = system: SNB-19 CNS
[48] = system: SNB-75 CNS
[49] = system: SR leukemia
[50] = system: SW-620 colon
[51] = system: T-47D breast
[52] = system: TK-10 renal
[53] = system: U251 glioblastoma
[54] = system: UACC-257 melanoma
[55] = system: UACC-62 melanoma
[56] = system: UO-31 renal

S=C(NCc1ccc2c(c1)OCO2)N1CCN(c2ncnc3c2oc2ccccc23)CC1
3.32 µM: TGI [26]
4.8 µM: TGI [27]
inactive: GI50 [1] 80.6 µM | GI50 [2] 2950 nM | GI50 [3] 9.14 µM | GI50 [4] > 100 µM | GI50 [5] 7.53 µM | GI50 [6] > 100 µM | GI50 [7] 917 nM | GI50 [8] > 100 µM | GI50 [9] > 100 µM | GI50 [10] 6.12 µM | GI50 [11] 21.7 µM | GI50 [12] 33.2 µM | GI50 [13] 3.18 µM | GI50 [14] 2780 nM | GI50 [15] 62.7 µM | GI50 [16] 23.2 µM | GI50 [17] > 100 µM | GI50 [18] 1620 nM | GI50 [19] > 100 µM | GI50 [20] 3.02 µM | GI50 [21] > 100 µM | GI50 [22] > 100 µM | GI50 [23] 3.01 µM | GI50 [24] 6.31 µM | GI50 [25] 72.4 µM | GI50 [26] 673 nM | GI50 [27] 1480 nM | GI50 [28] 23.6 µM | GI50 [29] 1870 nM | GI50 [30] 2550 nM | GI50 [31] 2940 nM | GI50 [32] 35.4 µM | GI50 [33] 1360 nM | GI50 [34] > 100 µM | GI50 [35] 5.77 µM | GI50 [36] > 100 µM | GI50 [37] 3.04 µM | GI50 [38] 67.6 µM | GI50 [39] 1790 nM | GI50 [40] > 100 µM | GI50 [41] > 100 µM | GI50 [42] > 100 µM | GI50 [43] > 100 µM | GI50 [44] 1060 nM | GI50 [45] 6.63 µM | GI50 [46] > 100 µM | GI50 [47] > 100 µM | GI50 [48] > 100 µM | GI50 [49] 490 nM | GI50 [50] > 100 µM | GI50 [51] 593 nM | GI50 [52] 71.6 µM | GI50 [53] 8.72 µM | GI50 [54] 6.23 µM | GI50 [55] > 100 µM | GI50 [56] 15.9 µM
3.36 µM: TGI [49]
2690 nM: TGI [44]
> 100 µM: TGI [1] | TGI [2] | TGI [3] | TGI [4] | TGI [5] | TGI [6] | TGI [8] | TGI [9] | TGI [10] | TGI [11] | TGI [12] | TGI [14] | TGI [15] | TGI [16] | TGI [17] | TGI [18] | TGI [19] | TGI [20] | TGI [21] | TGI [22] | TGI [23] | TGI [24] | TGI [25] | TGI [28] | TGI [29] | TGI [30] | TGI [32] | TGI [34] | TGI [35] | TGI [36] | TGI [37] | TGI [38] | TGI [40] | TGI [41] | TGI [42] | TGI [43] | TGI [45] | TGI [46] | TGI [47] | TGI [48] | TGI [50] | TGI [52] | TGI [53] | TGI [54] | TGI [55]
8.23 µM: TGI [51]
6.54 µM: TGI [33]
89 µM: TGI [56]
9.25 µM: TGI [31]
3.63 µM: TGI [7]
89.1 µM: TGI [39]
30.8 µM: TGI [13]
